Reference: patent US20220017566A1, “TERPINOID DERIVATIVES AND USES THEREOF” (SICHUAN HAISCO PHARMACEUTICAL CO., LTD., priority 2018, published 2022)

What was measured:
CYP1A2 = molecular target: T1, CYP1A2 (Homo sapiens, UniProt P05177); test: CYP450 enzyme inhibition in liver microsomes (cocktail probe incubation); assay type: in vitro ADME; details: species not given, 0.05-50 μM tested
T1 construct: studied in liver microsomes of CD-1 mouse, Sprague Dawley rat, Beagle dog, cynomolgus monkey, and human; from tissue; host or cells: liver microsomes
T1 sequence (P05177 1-516): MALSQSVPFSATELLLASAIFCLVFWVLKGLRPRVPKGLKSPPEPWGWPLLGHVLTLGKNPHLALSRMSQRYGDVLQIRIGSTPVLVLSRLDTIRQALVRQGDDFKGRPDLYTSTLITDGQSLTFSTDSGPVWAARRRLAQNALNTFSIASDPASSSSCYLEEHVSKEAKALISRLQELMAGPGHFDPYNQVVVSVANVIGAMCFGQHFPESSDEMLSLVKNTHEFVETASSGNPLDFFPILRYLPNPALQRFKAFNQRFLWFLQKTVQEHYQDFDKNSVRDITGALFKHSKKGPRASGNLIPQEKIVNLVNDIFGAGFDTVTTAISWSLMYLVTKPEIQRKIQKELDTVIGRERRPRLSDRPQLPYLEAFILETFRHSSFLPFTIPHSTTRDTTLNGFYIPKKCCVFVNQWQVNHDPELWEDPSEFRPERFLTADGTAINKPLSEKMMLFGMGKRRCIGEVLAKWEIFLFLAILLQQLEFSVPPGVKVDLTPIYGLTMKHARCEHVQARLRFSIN
Description: (§1) The inhibition potential of test compounds towards major drug metabolizing CYP450 enzymes was studied in liver microsomes of CD-1 mouse, Sprague Dawley rat, Beagle dog, cynomolgus monkey, and human. The inhibition of CYP1A2, CYP2C9, CYP2C19, CYP2D6, and CYP3A4 was assessed using CYP450 specific probe reactions in a cocktail incubation. Seven concentrations of test compounds (0.05, 0.15, 0.5, 1.5, 5, 15, and 50 μM) were evaluated. In addition, known inhibitors for each probe reaction were included as positive controls and incubated at a single concentration above their respective IC50.

CYP2C19 = molecular target: T2, CYP2C19 (Homo sapiens, UniProt P33261); test: as above; assay type: in vitro ADME; details: species not given, 0.05-50 μM tested
T2 construct: studied in liver microsomes of CD-1 mouse, Sprague Dawley rat, Beagle dog, cynomolgus monkey, and human; from tissue; host or cells: liver microsomes
Description: as §1

CYP3A4 = molecular target: T3, CYP3A4 (Homo sapiens, UniProt P08684); test: as above; assay type: in vitro ADME; details: species not given, 0.05-50 μM tested
T3 construct: studied in liver microsomes of CD-1 mouse, Sprague Dawley rat, Beagle dog, cynomolgus monkey, and human; from tissue; host or cells: liver microsomes
Description: as §1

CYP2C9 = molecular target: T4, CYP2C9 (Homo sapiens, UniProt P11712); test: as above; assay type: in vitro ADME; details: species not given, 0.05-50 μM tested
T4 construct: studied in liver microsomes of CD-1 mouse, Sprague Dawley rat, Beagle dog, cynomolgus monkey, and human; from tissue; host or cells: liver microsomes
Description: as §1

CYP2D6 = molecular target: T5, CYP2D6 (Homo sapiens, UniProt P10635); test: as above; assay type: in vitro ADME; details: species not given, 0.05-50 μM tested
T5 construct: studied in liver microsomes of CD-1 mouse, Sprague Dawley rat, Beagle dog, cynomolgus monkey, and human; from tissue; host or cells: liver microsomes
Description: as §1

[1] = tested on: IFNγ-induced NO production in Raw 264.7 cells; test: Nitric oxide assay: suppression of IFNγ-induced NO production (Griess nitrite, adjusted to live cell numbers); assay type: cell-based; details: Mus musculus, RAW264.7, 2 h pretreatment, IFNγ 10 ng/ml for 24 hours
Description: Raw 264.7 cells were seeded in 96-well plates at a density of 30, 000 cells per well in DMEM+10% FBS and incubated overnight. The next day, cell media was replaced by DMEM+2% FBS. Cells were pretreated with DMSO or test compounds (top dose 100 nM, 1:4 serial dilution, 10-point) for 2 hours and then treated with recombinant mouse IFNγ (R&D, Cat# 485-MI-100) at a final concentration of 10 ng/ml for 24 hours. Nitrite levels were measured in culture media as a surrogate for nitric oxide using the Griess Reagent System (Promega, Cat# G2930). Cell viability was determined using CellTiter Glo reagents (Promega, Cat#G7572). The nitrite levels were adjusted to live cell numbers and inhibition percentage was calculated. The inhibition percentage was then plotted against compound concentration, and IC50 values were calculated using four-parameter algorithm in Graphpad Prism.

T4 sequence (P11712 whole entry): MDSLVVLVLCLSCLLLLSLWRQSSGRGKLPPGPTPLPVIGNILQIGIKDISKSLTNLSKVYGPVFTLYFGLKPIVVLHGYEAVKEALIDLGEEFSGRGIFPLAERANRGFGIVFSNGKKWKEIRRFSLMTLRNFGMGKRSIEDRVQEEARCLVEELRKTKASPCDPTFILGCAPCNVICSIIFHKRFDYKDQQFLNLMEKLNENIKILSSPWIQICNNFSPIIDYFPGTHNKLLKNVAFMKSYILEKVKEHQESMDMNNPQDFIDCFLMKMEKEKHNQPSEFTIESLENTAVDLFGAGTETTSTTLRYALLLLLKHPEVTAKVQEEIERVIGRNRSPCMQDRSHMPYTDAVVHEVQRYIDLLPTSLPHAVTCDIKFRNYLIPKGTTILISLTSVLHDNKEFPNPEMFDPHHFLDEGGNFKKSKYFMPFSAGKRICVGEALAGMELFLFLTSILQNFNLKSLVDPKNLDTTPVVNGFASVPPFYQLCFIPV
T3 sequence (P08684 whole entry): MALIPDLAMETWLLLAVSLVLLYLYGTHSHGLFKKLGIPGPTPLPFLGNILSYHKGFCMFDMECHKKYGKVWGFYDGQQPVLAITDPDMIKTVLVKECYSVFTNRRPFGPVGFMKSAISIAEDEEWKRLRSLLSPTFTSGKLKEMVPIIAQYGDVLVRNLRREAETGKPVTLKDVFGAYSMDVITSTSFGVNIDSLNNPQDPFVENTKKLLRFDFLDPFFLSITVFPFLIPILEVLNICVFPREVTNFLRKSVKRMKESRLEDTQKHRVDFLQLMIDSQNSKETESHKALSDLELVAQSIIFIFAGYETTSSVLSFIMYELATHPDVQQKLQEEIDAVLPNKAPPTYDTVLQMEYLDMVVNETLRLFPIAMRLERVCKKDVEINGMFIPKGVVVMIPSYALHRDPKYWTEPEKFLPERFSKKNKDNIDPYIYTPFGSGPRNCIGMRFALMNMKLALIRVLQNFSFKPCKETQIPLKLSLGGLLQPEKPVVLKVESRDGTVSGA
T2 sequence (P33261 whole entry): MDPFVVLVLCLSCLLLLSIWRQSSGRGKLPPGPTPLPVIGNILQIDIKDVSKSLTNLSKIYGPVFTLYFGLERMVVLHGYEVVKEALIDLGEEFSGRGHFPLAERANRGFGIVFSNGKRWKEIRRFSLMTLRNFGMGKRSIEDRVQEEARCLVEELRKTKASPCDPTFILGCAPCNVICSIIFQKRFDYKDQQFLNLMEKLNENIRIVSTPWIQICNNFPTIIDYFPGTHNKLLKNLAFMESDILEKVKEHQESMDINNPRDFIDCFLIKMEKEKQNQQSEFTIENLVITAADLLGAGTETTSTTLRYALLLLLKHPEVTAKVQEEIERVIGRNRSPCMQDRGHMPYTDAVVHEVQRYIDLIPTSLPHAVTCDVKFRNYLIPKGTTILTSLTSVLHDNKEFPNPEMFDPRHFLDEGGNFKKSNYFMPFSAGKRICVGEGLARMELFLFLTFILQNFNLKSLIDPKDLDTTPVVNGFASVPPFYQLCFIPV
T5 sequence (P10635 whole entry): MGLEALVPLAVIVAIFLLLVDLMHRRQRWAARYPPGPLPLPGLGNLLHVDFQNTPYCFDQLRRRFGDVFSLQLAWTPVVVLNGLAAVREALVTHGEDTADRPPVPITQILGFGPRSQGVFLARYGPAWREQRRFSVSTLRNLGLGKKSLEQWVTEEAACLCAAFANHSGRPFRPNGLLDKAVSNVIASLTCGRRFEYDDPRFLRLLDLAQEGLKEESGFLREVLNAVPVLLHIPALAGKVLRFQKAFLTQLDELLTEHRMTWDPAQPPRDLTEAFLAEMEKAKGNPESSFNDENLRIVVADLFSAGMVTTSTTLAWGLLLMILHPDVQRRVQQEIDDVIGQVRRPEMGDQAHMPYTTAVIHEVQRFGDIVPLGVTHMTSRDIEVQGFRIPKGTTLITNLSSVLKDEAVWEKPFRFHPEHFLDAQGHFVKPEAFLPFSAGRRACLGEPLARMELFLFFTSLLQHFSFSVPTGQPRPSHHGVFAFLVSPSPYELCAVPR

| SMILES | IC50 (CYP1A2) [nM] | IC50 (CYP2C19) [nM] | IC50 (CYP3A4) [nM] | IC50 (CYP2C9) [nM] | IC50 (CYP2D6) [nM] | IC50 [1] [nM] |
| --- | --- | --- | --- | --- | --- | --- |
| CC1(C)C(=O)C(C#N)=C[C@]2(C)C3=CC(=O)[C@@H]4[C@@H]5C[C@@](C)(c6nc(-c7ccccc7)n[nH]6)CC[C@]5(C)CC[C@@]4(C)[C@]3(C)CC[C@@H]12 [Example 8, (4aR,6aS,6bR,8aS,11S,12aS,12bR,14bS)-4,4,6a,6b,8a,11,14b-heptamethyl-3,13-dioxo-11-(3-phenyl-1H-1,2,4-triazol-5-yl)-3,4,4a,5,6,6a,6b,7,8,8a,9,10,11,12,12a,12b,13,14b-octadecahydropicene-2carbonitrile] | – | – | – | – | – | 10 to 100 |
| CC1(C)C(=O)C(C#N)=C[C@]2(C)C3=CC(=O)[C@@H]4[C@@H]5C[C@@](C)(n6cnnc6)CC[C@]5(C)CC[C@@]4(C)[C@]3(C)CC[C@@H]12 [Example 17, (4aR,6aS,6bR,8aS,11S,12aS,12bR,14bS)-4,4,6a,6b,8a,11,14b-heptamethyl-3,13 dioxo-11-(4H-1,2,4-triazol-4-yl)-3,4,4a,5,6,6a,6b,7,8,8a,9,10,11,12,12a,12b,13,14b-octadecahydropicene-2-carbonitrile] | > 50000 | 16900 | 100 | 2200 | 35400 | – |
| CC1(C)C(=O)C(C#N)=C[C@]2(C)C3=CC(=O)[C@@H]4[C@@H]5C[C@@](C)(N6CCCC6)CC[C@]5(C)CC[C@@]4(C)[C@]3(C)CC[C@@H]12 [Example 21, (4aR,6aS,6bR,8aS,11S,12aS,12bR,14bS)-4,4,6a,6b,8a,11,14b-heptamethyl-3,13-dioxo-11-(pyrrolidin-1-yl)-3,4,4a,5,6,6a,6b,7,8,8a,9,10,11,12,12a,12b,13,14b-octadecahydropicene-2-carbonitrile] | – | – | – | – | – | 10 to 100 |
| C[C@H](O)c1nnc([C@@]2(C)CC[C@]3(C)CC[C@]4(C)[C@H](C(=O)C=C5[C@@]6(C)C=C(C#N)C(=O)C(C)(C)[C@@H]6CC[C@]54C)[C@@H]3C2)o1 [Example 23, (4aR,6aS,6bR,8aS,11S,12aS,12bR,14bS)-11-(5-((S)-1-hydroxyethyl)-1,3,4-oxadiazol-2-yl)-4,4,6a,6b,8a,11,14b-heptamethyl-3,13-dioxo-3,4,4a,5,6,6a,6b,7,8,8a,9,10,11,12,12a,12b,13,14b-octadecahydropicene-2-carbonitrile] | > 50000 | 11800 | 900 | 1500 | 15800 | 10 to 100 |
| CNC(=O)c1nnc([C@@]2(C)CC[C@]3(C)CC[C@]4(C)[C@H](C(=O)C=C5[C@@]6(C)C=C(C#N)C(=O)C(C)(C)[C@@H]6CC[C@]54C)[C@@H]3C2)o1 [Example 24, 5-((2S,4aS,6aR,6bS,8aR,12aS,14aR,14bS)-11-cyano-2,4a,6a,6b,9,9,12a-heptamethyl-10,14-dioxo-1,2,3,4,4a,5,6,6a,6b,7,8,8a,9,10,12a,14,14a,14b-octadecahydropicen-2-yl)-N-methyl-1,3,4-oxadiazole-2-carboxamide] | > 50000 | 2800 | 500 | 600 | 4000 | < 10 |
| CC1(C)C(=O)C(C#N)=C[C@]2(C)C3=CC(=O)[C@@H]4[C@@H]5C[C@@](C)(c6nnc(N)o6)CC[C@]5(C)CC[C@@]4(C)[C@]3(C)CC[C@@H]12 [Example 27, (4aR,6aS,6bR,8aS,11S,12aS,12bR,14bS)-11-(5-amino-1,3,4-oxadiazol-2-yl)-4,4,6a,6b,8a,11,14b-heptamethyl-3,13-dioxo-3,4,4a,5,6,6a,6b,7,8,8a,9,10,11,12,12a,12b,13,14b-octadecahydropicene-2-carbonitrile] | – | – | – | – | – | 10 to 100 |

The next lines start with the values.

| IC50 (CYP1A2) [nM] | IC50 (CYP2C19) [nM] | IC50 (CYP3A4) [nM] | IC50 (CYP2C9) [nM] | IC50 (CYP2D6) [nM] | IC50 [1] [nM] | SMILES |
| --- | --- | --- | --- | --- | --- | --- |
| > 50000 | 5600 | 500 | 2100 | 6900 | < 10 | CC1(C)C(=O)C(C#N)=C[C@]2(C)C3=CC(=O)[C@@H]4[C@@H]5C[C@@](C)(c6ncco6)CC[C@]5(C)CC[C@@]4(C)[C@]3(C)CC[C@@H]12 [Example 6, (4aR,6aS,6bR,8aS,11S,12aS,12bR,14bS)-4,4,6a,6b,8a,11,14b-heptamethyl-11-(oxazol-2-yl)-3,13-dioxo-3,4,4a,5,6,6a,6b,7,8,8a,9,10,11,12,12a,12b,13,14b-octadecahydropicene-2-carbonitrile] |
| > 50000 | 9400 | 800 | 2000 | 10100 | < 10 | Cc1cnc([C@@]2(C)CC[C@]3(C)CC[C@]4(C)[C@H](C(=O)C=C5[C@@]6(C)C=C(C#N)C(=O)C(C)(C)[C@@H]6CC[C@]54C)[C@@H]3C2)o1 [Example 7, (4aR,6aS,6bR,8aS,11S,12aS,12bR,14bS)-4,4,6a,6b,8a,11,14b-heptamethyl-11-(5-methyloxazol-2-yl)-3,13-dioxo-3,4,4a,5,6,6a,6b,7,8,8a,9,10,11,12,12a,12b,13,14b-octadecahydropicene-2-carbonitrile] |
| > 50000 | 27500 | 1300 | 1800 | > 50000 | < 10 | CC1(C)C(=O)C(C#N)=C[C@]2(C)C3=CC(=O)[C@@H]4[C@@H]5C[C@@](C)(c6nnc(C(F)(F)F)o6)CC[C@]5(C)CC[C@@]4(C)[C@]3(C)CC[C@@H]12 [Example 10, (4aR,6aS,6bR,8aS,11S,12aS,12bR,14bS)-4,4,6a,6b,8a,11,14b-heptamethyl-3,13-dioxo-11-(5-(trifluoromethyl)-1,3,4-oxadiazol-2-yl)-3,4,4a,5,6,6a,6b,7,8,8a,9,10,11,12,12a,12b,13,14b-octadecahydropicene-2-carbonitrile] |
| > 50000 | 14600 | 500 | 2200 | > 50000 | < 10 | CC1(C)C(=O)C(C#N)=C[C@]2(C)C3=CC(=O)[C@@H]4[C@@H]5C[C@@](C)(N6CCOCC6)CC[C@]5(C)CC[C@@]4(C)[C@]3(C)CC[C@@H]12 [Example 11, (4aR,6aS,6bR,8aS,11S,12aS,12bR,14bS)-4,4,6a,6b,8a,11,14b-heptamethyl-11-morpholino-3,13-dioxo-3,4,4a,5,6,6a,6b,7,8,8a,9,10,11,12,12a,12b,13,14b-octadecahydropicene-2-carbonitrile] |
| > 50000 | 7400 | 1500 | 2000 | 14700 | < 10 | CC1(C)C(=O)C(C#N)=C[C@]2(C)C3=CC(=O)[C@@H]4[C@@H]5C[C@@](C)(c6nnc(C7CC7)o6)CC[C@]5(C)CC[C@@]4(C)[C@]3(C)CC[C@@H]12 [Example 16, (4aR,6aS,6bR,8aS,11S,12aS,12bR,14bS)-11-(5-cyclopropyl-1,3,4-oxadiazol-2-yl)-4,4,6a,6b,8a,11,14b-heptamethyl-3,13-dioxo-3,4,4a,5,6,6a,6b,7,8,8a,9,10,11,12,12a,12b,13,14b-octadecahydropicene-2-carbonitrile] |
